Test results published in ChEMBL document CHEMBL4339224, “Identification of a Strigoterpenoid with Dual Nrf2 and Nf-κB Modulatory Activity” (ACS Med Chem Lett, 2019).
Active and inactive are the calls of the source. No cut-off for these calls is given here.

Legend:
[1] = Inhibition of TNFalpha-induced NFkappaB (unknown origin) expressed in mouse NIH3T3-KBF-Luc cells pre-incubated for 15 mins before TNFalpha stimulation for 6 hrs by luciferase reporter gene assay; format: cell-based, Homo sapiens
[2] = biological target: T1, Nuclear factor erythroid 2-related factor 2 (Homo sapiens, UniProt Q16236); assay: Activation of Nrf2 in human HaCaT-ARE-Luc cells expressing Nqo1 ARE-Luc reporter plasmid incubated for 6 hrs by luciferase reporter gene assay; format: cell-based
T1 sequence (Q16236 whole entry): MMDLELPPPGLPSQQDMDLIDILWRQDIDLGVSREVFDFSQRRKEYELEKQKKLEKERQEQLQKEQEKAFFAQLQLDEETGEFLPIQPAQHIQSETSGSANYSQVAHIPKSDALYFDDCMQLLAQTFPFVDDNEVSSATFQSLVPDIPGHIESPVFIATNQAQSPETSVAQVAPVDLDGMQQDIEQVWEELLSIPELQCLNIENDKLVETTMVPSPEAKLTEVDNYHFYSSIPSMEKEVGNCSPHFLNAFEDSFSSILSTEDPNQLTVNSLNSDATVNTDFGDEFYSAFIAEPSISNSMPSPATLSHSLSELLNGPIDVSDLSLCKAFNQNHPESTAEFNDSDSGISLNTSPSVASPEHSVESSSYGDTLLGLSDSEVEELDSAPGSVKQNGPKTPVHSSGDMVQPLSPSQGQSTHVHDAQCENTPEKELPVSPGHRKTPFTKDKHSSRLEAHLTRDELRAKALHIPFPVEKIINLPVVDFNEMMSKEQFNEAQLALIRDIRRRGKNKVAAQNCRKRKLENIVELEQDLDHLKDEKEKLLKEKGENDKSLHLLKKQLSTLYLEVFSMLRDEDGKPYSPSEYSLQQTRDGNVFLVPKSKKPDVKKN

[3] = biological target: T2, Nuclear factor erythroid 2-related factor 2 (Homo sapiens) (UniProt Q16236); assay: Activation of Nrf2 in human HaCaT-ARE-Luc cells expressing Nqo1 ARE-Luc reporter plasmid at 0.1 to 50 uM in presence of 15 mM NAC incubated for 6 hrs by luciferase reporter gene assay; format: cell-based
T2 sequence (whole entry): T1 sequence (Q16236 whole entry)

[4] = tested on: HaCaT; assay: Induction of ROS production in human HaCaT cells at 10 uM incubated for 3 hrs by DCFH-DA staining based fluorimetry; format: functional, cell-based
[5] = species: Homo sapiens; assay: Inhibition of TNFalpha-induced NFkappaB (unknown origin) canonical pathway expressed in mouse NIH3T3-KBF-Luc cells assessed as inhibition of IkappaB-alpha phosphorylation pre-incubated for 15 mins before TNFalpha stimulation for 6 hrs by Western blot analysis; format: cell-based
[6] = biological target: Transcription factor p65 (Homo sapiens) (UniProt Q04206); assay: Inhibition of TNFalpha-induced NFkappaB (unknown origin) canonical pathway expressed in mouse NIH3T3-KBF-Luc cells assessed as inhibition of p65 phosphorylation pre-incubated for 15 mins before TNFalpha stimulation for 6 hrs by Western blot analysis; format: cell-based
[7] = tested on: HaCaT; assay: Induction of ROS production in human HaCaT cells at 400 uM incubated for 3 hrs by DCFH-DA staining based fluorimetry; format: functional, cell-based

Chain of Transcription factor p65 (Homo sapiens) (Q04206 whole entry): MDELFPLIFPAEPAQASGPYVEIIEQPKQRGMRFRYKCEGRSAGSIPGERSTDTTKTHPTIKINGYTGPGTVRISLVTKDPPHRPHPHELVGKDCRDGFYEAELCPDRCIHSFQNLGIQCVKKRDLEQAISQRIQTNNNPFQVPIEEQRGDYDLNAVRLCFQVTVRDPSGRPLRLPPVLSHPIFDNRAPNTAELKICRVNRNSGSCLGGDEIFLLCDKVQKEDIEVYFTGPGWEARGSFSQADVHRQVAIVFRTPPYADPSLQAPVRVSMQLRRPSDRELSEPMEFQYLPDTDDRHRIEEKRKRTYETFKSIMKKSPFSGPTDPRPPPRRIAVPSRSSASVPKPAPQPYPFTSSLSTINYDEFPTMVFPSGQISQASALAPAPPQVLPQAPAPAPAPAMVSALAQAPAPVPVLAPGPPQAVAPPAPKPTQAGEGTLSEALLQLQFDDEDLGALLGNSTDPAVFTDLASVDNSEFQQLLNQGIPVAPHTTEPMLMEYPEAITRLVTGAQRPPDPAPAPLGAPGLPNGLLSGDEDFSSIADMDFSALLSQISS

Structure (SMILES)	IC50 [1] [µM]	EC50 [2] [µM]	other results
CC1=CC(OCC2=CC3CC(C2)C3(C)C)OC1=O (stereo not drawn)	> 50	15.5	–
CC1=CC(O/C=C2\C[C@]3(C)[C@H]4CC=C5[C@@H]6[C@@H](C)[C@H](C)CC[C@]6(C)CC[C@@]5(C)[C@]4(C)CC[C@H]3C(C)(C)C2=O)OC1=O (stereo partly drawn)	> 50	> 50	–
C=C(C)[C@@H]1CC[C@]2(C(=O)OC)CC[C@]3(C)[C@H](CC[C@@H]4[C@@]5(C)C/C(=C\OC6C=C(C)C(=O)O6)C(=O)C(C)(C)[C@@H]5CC[C@]43C)[C@@H]12 (stereo partly drawn)	> 50	> 50	–
C=C(C)[C@@H]1CC[C@]2(C)CC[C@]3(C)[C@H](CC[C@@H]4[C@@]5(C)C/C(=C\OC6C=C(C)C(=O)O6)C(=O)C(C)(C)[C@@H]5CC[C@]43C)[C@@H]12 (stereo partly drawn)	> 50	> 50	–
CC(C)=CCC/C(C)=C/COC1C=C(C)C(=O)O1 (stereo not drawn)	> 50	16.2	–
CC1=CC(OCc2ccc(C(C)C)cc2)OC1=O (stereo not drawn)	> 50	16.3	–
COC(=O)[C@]12CCC(C)(C)C[C@H]1C1=CC[C@@H]3[C@@]4(C)C/C(=C\OC5C=C(C)C(=O)O5)C(=O)C(C)(C)[C@@H]4CC[C@@]3(C)[C@]1(C)CC2 (stereo partly drawn)	> 50	> 50	–
COC(=O)[C@]12CC[C@@H](C)[C@H](C)[C@H]1C1=CC[C@@H]3[C@@]4(C)C/C(=C\OC5C=C(C)C(=O)O5)C(=O)C(C)(C)[C@@H]4CC[C@@]3(C)[C@]1(C)CC2 (stereo partly drawn)	> 50	> 50	inhibition [5]: inactive; inhibition [6]: inactive
COC(=O)[C@@]1(C)CC[C@]2(C)CC[C@]3(C)C(=CC(=O)[C@@H]4[C@@]5(C)C/C(=C\OC6C=C(C)C(=O)O6)C(=O)C(C)(C)[C@@H]5CC[C@]43C)[C@@H]2C1 (stereo partly drawn)	> 50	> 50	–
CC(C)=CCCC(C)CCOC1C=C(C)C(=O)O1 (stereo not drawn)	> 50	22.8	–
CC1=CC(O/C=C2\C[C@]3(C)[C@H]4CC=C5[C@@H]6CC(C)(C)CC[C@]6(C)CC[C@@]5(C)[C@]4(C)CC[C@H]3C(C)(C)C2=O)OC1=O (stereo partly drawn)	> 50	> 50	–
CC1=CC(OC2C[C@H](C)CC[C@H]2C(C)C)OC1=O (stereo partly drawn)	> 50	26.3	–
CC(C)(C)OO	–	–	Activity [7]: Active
CC1=CC(O/C=C2/C(=O)[C@H](C(C)C)CC[C@H]2C)OC1=O (stereo partly drawn)	> 50	17.8	–
CC(C)=CCOC1C=C(C)C(=O)O1 (stereo not drawn)	> 50	29.5	–

Further lines, with some results ahead:

IC50 [1] [µM]	EC50 [2] [µM]	Structure (SMILES)	other results
–	2.5	COC(=O)/C(C)=C/CC/C(C)=C/CC/C(C)=C/CC[C@@H]1[C@@]2(C)C/C(=C\OC3C=C(C)C(=O)O3)C(=O)C(C)(C)C2CC[C@@]1(C)O (stereo partly drawn)	–
7.9	1.2	CC1=CC(O/C=C2\C[C@]3(C)C(COc4ccc5ccc(=O)oc5c4)[C@](C)(O)CC[C@H]3C(C)(C)C2=O)OC1=O (stereo partly drawn)	Activity [3]: inactive; Activity [4]: inactive
> 50	1.9	CC1=CC(O/C=C2/C(=O)C(C)[C@H]3C[C@@]23C(C)C)OC1=O (stereo partly drawn)	–
> 50	5	CC1=CC(O/C=C2/C(=O)C(=C(C)C)CC[C@H]2C)OC1=O (stereo partly drawn)	–
> 50	1.6	C=C(C)[C@@H]1CC=C(C)C(=O)/C1=C/OC1C=C(C)C(=O)O1 (stereo partly drawn)	–
–	1.2	CC1=C[C@H](O/C=C2/C(=O)O[C@@H]3C4=C(C[C@H]23)[C@@H](O)CCC4(C)C)OC1=O [STRIGOL]	–
